{"source": "patent US9409952B2", "about": "“Peptide-compound cyclization method” (Chugai Seiyaku Kabushiki Kaisha, priority 2011, dated 2016)", "key": {"[1]": {"assay": "Metabolic stability in human hepatic microsome", "type": "in vitro ADME", "conditions": "for microsomal CLint at 1 uM: microsomes"}, "[2]": {"assay": "PAMPA (parallel artificial membrane permeability assay)", "type": "in vitro ADME", "conditions": "PAMPA", "method_in_brief": "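Artificial membrane was 10% (w/v) egg lecithin plus 0.5% (w/v) cholesterol in dodecane on a PVDF filter. A 10 mM DMSO stock was added at 0.5% (v/v) to donor buffer (50 mM MOPSO, pH 6.5, 5.0% glycocholic acid). After 18 h at 37 °C, LC/MS or LC/UV gave donor and acceptor levels for Pe.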"}, "[3]": {"conditions": "pH 7.4, human hepatic microsome, NADPH(+), read-out: CL NADPH(+)"}, "[4]": {"conditions": "membrane permeation rate (Pe), 50 mM MOPSO buffer pH 6.5 with 5.0% glycocholic acid, 37° C., 18 hours, read-out: iPAMPA Pe"}}, "note": "Structures can show the parent of a compound that is named as a salt. Where two headings read alike, the source gives them in different places. Positions of bridges follow the written chain, without caps; N, C: chain ends. Non-standard residues stand in square brackets, D forms with d. Residues, ends and D or L forms follow the SMILES beside them. *: point of attachment. NMeF = CN[C@@H](Cc1ccccc1)C(=O)O; NMeI = CC[C@H](C)[C@H](NC)C(=O)O; NMeL = CN[C@@H](CC(C)C)C(=O)O; NMeV = CN[C@H](C(=O)O)C(C)C; NMeA = CN[C@@H](C)C(=O)O; Piperidide = C1CCN(*)CC1; Sar = CNCC(=O)O; tBu = CC(C)(C)*"}
{"smiles": "CC[C@H](C)[C@@H]1NC(=O)[C@H](C)NC(=O)C[C@@H](C(=O)N2CCCCC2)NC(=O)[C@H](CC(C)C)NC(=O)[C@H](CC(C)C)NC(=O)[C@H](C(C)C)NC(=O)[C@H](C)N(C)C(=O)[C@H](Cc2ccccc2)NC(=O)CNC(=O)[C@H]([C@@H](C)O)NC(=O)[C@H](CC(C)C)N(C)C(=O)[C@@H]2CCCN2C1=O", "note": "[DP-5] (AIP[NMeL]TGF[NMeA]VLLD-Piperidide; lactam N-12)", "values": [{"measurement": "microsomal CLint at 1 uM", "setting": "[1]; human, pH 7.4, CL NADPH(+)", "result": 68, "unit": "µL/min/mg"}, {"measurement": "Papp at 18 hours, 50 µM", "setting": "[2]; pH 6.5", "result": 13, "unit": "×10⁻⁶ cm/s"}]}
{"smiles": "CC[C@H](C)[C@H]1C(=O)N(C)[C@@H](C)C(=O)N[C@@H](Cc2ccccc2)C(=O)N[C@@H]([C@@H](C)O)C(=O)N[C@@H](Cc2ccccc2)C(=O)N(C)[C@@H](CC(C)C)C(=O)N2CCC[C@H]2C(=O)N[C@H](C(=O)N2CCCCC2)CC(=O)N[C@@H](C)C(=O)N[C@@H](CC(C)C)C(=O)N(C)CC(=O)N[C@@H](CC(C)C)C(=O)N1C", "note": "[DP-7] (AL[Sar]L[NMeI][NMeA]FTF[NMeL]PD-Piperidide; lactam N-12)", "values": [{"measurement": "microsomal CLint at 1 uM", "setting": "[1]; [3]", "result": 48, "unit": "µL/min/mg"}, {"measurement": "Papp at 18 hours, 50 µM", "setting": "[2]; [4]", "result": 10, "unit": "×10⁻⁶ cm/s"}]}
{"smiles": "CC[C@H](C)[C@@H]1NC(=O)[C@H](C)NC(=O)C[C@@H](C(=O)N2CCCCC2)NC(=O)[C@H](Cc2ccccc2)NC(=O)[C@H](C(C)C)N(C)C(=O)[C@H](CC(C)C)NC(=O)[C@H](C)N(C)C(=O)[C@H](Cc2ccccc2)N(C)C(=O)[C@H]([C@@H](C)O)NC(=O)CN(C)C(=O)[C@H](CC(C)C)N(C)C(=O)[C@@H]2CCCN2C1=O", "note": "[DP-9] (AIP[NMeL][Sar]T[NMeF][NMeA]L[NMeV]FD-Piperidide; lactam N-12)", "values": [{"measurement": "microsomal CLint at 1 uM", "setting": "[1]; [3]", "result": 18, "unit": "µL/min/mg"}, {"measurement": "Papp at 18 hours, 50 µM", "setting": "[2]; [4]", "result": 13, "unit": "×10⁻⁶ cm/s"}]}
{"smiles": "CC[C@H](C)[C@H]1C(=O)N(C)[C@@H](C)C(=O)N(C)[C@@H](Cc2ccccc2)C(=O)N[C@@H]([C@@H](C)O)C(=O)N(C)[C@@H](Cc2ccccc2)C(=O)N(C)[C@@H](CC(C)C)C(=O)N2CCC[C@H]2C(=O)N[C@H](C(=O)N2CCCCC2)CC(=O)N[C@@H](C)C(=O)NCC(=O)N(C)[C@@H](CC(C)C)C(=O)N1C", "note": "[DP-16] (AG[NMeL][NMeI][NMeA][NMeF]T[NMeF][NMeL]PD-Piperidide; lactam N-11)", "values": [{"measurement": "microsomal CLint at 1 uM", "setting": "[1]; [3]", "result": 74, "unit": "µL/min/mg"}, {"measurement": "Papp at 18 hours, 50 µM", "setting": "[2]; pH 6.5", "result": 30, "unit": "×10⁻⁶ cm/s"}]}
{"smiles": "CC[C@H](C)[C@@H]1NC(=O)[C@H](Cc2ccccc2)N(C)C(=O)[C@H](Cc2ccccc2)NC(=O)[C@H](CC(C)C)N(C)C(=O)[C@H](CC(C)C)NC(=O)[C@H](C)NC(=O)C[C@@H](C(=O)N2CCCCC2)NC(=O)[C@H](CC(C)C)NC(=O)[C@H]([C@@H](C)O)NC(=O)[C@@H]2CCCN2C1=O", "note": "[DP-17] (AL[NMeL]F[NMeF]IPTLD-Piperidide; lactam N-10)", "values": [{"measurement": "microsomal CLint at 1 uM", "setting": "[1]; human, pH 7.4, CL NADPH(+)", "result": 94, "unit": "µL/min/mg"}, {"measurement": "Papp at 18 hours, 50 µM", "setting": "[2]; pH 6.5", "result": 38, "unit": "×10⁻⁶ cm/s"}]}
{"smiles": "CC[C@H](C)[C@H]1C(=O)N(C)[C@@H](C)C(=O)N[C@@H](Cc2ccccc2)C(=O)N[C@@H]([C@@H](C)O)C(=O)N[C@@H](CC(C)C)C(=O)N(C)[C@@H](Cc2ccccc2)C(=O)N(C)[C@@H](C(C)C)C(=O)N[C@H](C(=O)N2CCCCC2)CC(=O)N[C@@H](C)C(=O)N[C@@H](CC(C)C)C(=O)N1C", "note": "[DP-18] (AL[NMeI][NMeA]FTL[NMeF][NMeV]D-Piperidide; lactam N-10)", "values": [{"measurement": "microsomal CLint at 1 uM", "setting": "[1]; human, pH 7.4, CL NADPH(+)", "result": 202, "unit": "µL/min/mg"}, {"measurement": "Papp at 18 hours, 50 µM", "setting": "[2]; pH 6.5", "result": 30, "unit": "×10⁻⁶ cm/s"}]}
{"smiles": "CC[C@H](C)[C@H]1C(=O)N[C@@H](Cc2ccccc2)C(=O)N[C@@H](Cc2ccccc2)C(=O)N2CCC[C@H]2C(=O)N[C@@H]([C@@H](C)O)C(=O)N(C)[C@@H](CC(C)C)C(=O)N[C@H](C(=O)N2CCCCC2)CC(=O)N[C@@H](C)C(=O)N[C@@H](C)C(=O)N(C)[C@@H](CC(C)C)C(=O)N[C@@H](CC(C)C)C(=O)N1C", "note": "[DP-29] (AA[NMeL]L[NMeI]FFPT[NMeL]D-Piperidide; lactam N-11)", "values": [{"measurement": "microsomal CLint at 1 uM", "setting": "[1]; human, pH 7.4, CL NADPH(+)", "result": 158, "unit": "µL/min/mg"}, {"measurement": "Papp at 18 hours, 50 µM", "setting": "[2]; pH 6.5", "result": 31, "unit": "×10⁻⁶ cm/s"}]}
{"smiles": "CC[C@H](C)[C@H]1C(=O)N[C@@H](CC(C)C)C(=O)N(C)CC(=O)N[C@@H]([C@@H](C)O)C(=O)N[C@@H](Cc2ccccc2)C(=O)N[C@@H](C)C(=O)N(C)[C@@H](CC(C)C)C(=O)N[C@@H](Cc2ccccc2)C(=O)N[C@@H](C(C)C)C(=O)N[C@H](C(=O)N2CCCCC2)CC(=O)N[C@@H](C)C(=O)N[C@@H](CC(C)C)C(=O)N1C", "note": "[DP-35] (AL[NMeI]L[Sar]TFA[NMeL]FVD-Piperidide; lactam N-12)", "values": [{"measurement": "microsomal CLint at 1 uM", "setting": "[1]; human, pH 7.4, CL NADPH(+)", "result": 32, "unit": "µL/min/mg"}, {"measurement": "Papp at 18 hours, 50 µM", "setting": "[2]; pH 6.5", "result": 12, "unit": "×10⁻⁶ cm/s"}]}
{"smiles": "CC[C@H](C)[C@H]1C(=O)N[C@H](C(=O)N2CCCCC2)CC(=O)N[C@@H](C)C(=O)N(C)[C@@H](Cc2ccccc2)C(=O)N(C)[C@@H](CC(C)C)C(=O)N[C@@H]([C@@H](C)O)C(=O)N(C)CC(=O)N(C)[C@@H](CC(C)C)C(=O)N[C@@H](COC(C)(C)C)C(=O)N1C", "note": "[DP-37] (A[NMeF][NMeL]T[Sar][NMeL]S(tBu)[NMeI]D-Piperidide; lactam N-9)", "values": [{"measurement": "microsomal CLint at 1 uM", "setting": "[1]; human, pH 7.4, CL NADPH(+)", "result": 156, "unit": "µL/min/mg"}, {"measurement": "Papp at 18 hours, 50 µM", "setting": "[2]; pH 6.5", "result": 31, "unit": "×10⁻⁶ cm/s"}]}
{"smiles": "CC(C)C[C@H]1C(=O)N[C@@H](COC(C)(C)C)C(=O)N[C@H](C(=O)N2CCCCC2)CC(=O)N[C@@H](C)C(=O)N(C)[C@@H](C)C(=O)N(C)[C@@H](Cc2ccccc2)C(=O)N(C)[C@@H](CC(C)C)C(=O)N[C@@H]([C@@H](C)O)C(=O)N(C)CC(=O)N1C", "note": "[DP-38] (A[NMeA][NMeF][NMeL]T[Sar][NMeL]S(tBu)D-Piperidide; lactam N-9)", "values": [{"measurement": "microsomal CLint at 1 uM", "setting": "[1]; human, pH 7.4, CL NADPH(+)", "result": 55, "unit": "µL/min/mg"}, {"measurement": "Papp at 18 hours, 50 µM", "setting": "[2]; pH 6.5", "result": 16, "unit": "×10⁻⁶ cm/s"}]}
{"smiles": "CC(C)C[C@H]1C(=O)N[C@@H](COC(C)(C)C)C(=O)N[C@H](C(=O)N2CCCCC2)CC(=O)N(C)[C@@H](C)C(=O)N(C)[C@@H](C)C(=O)N(C)[C@@H](Cc2ccccc2)C(=O)N(C)[C@@H](CC(C)C)C(=O)N[C@@H]([C@@H](C)O)C(=O)N(C)CC(=O)N1C", "note": "[DP-39] ([NMeA][NMeA][NMeF][NMeL]T[Sar][NMeL]S(tBu)D-Piperidide; lactam N-9)", "values": [{"measurement": "CL NADPH(+)", "setting": "[1]; human hepatic microsome, NADPH(+)", "result": 67}, {"measurement": "Papp at 18 hours, 50 µM", "setting": "[2]; pH 6.5", "result": 16, "unit": "×10⁻⁶ cm/s"}]}
{"smiles": "CC[C@H](C)[C@H](NC(=O)[C@@H]1CC(=O)N[C@@H](C)C(=O)N[C@@H](CC(C)C)C(=O)N2CCC[C@H]2C(=O)N[C@@H](C)C(=O)N[C@@H](CC(C)C)C(=O)N(C)CC(=O)N[C@@H]([C@@H](C)O)C(=O)N[C@@H](Cc2ccccc2)C(=O)N[C@@H](CC(C)C)C(=O)N(C)[C@@H](Cc2ccccc2)C(=O)N[C@@H](C(C)C)C(=O)N1)C(=O)N1CCCCC1", "note": "[DP-40] (ALPAL[Sar]TFL[NMeF]VDI-Piperidide; lactam N-12)", "values": [{"measurement": "microsomal CLint at 1 uM", "setting": "[1]; human, pH 7.4, CL NADPH(+)", "result": 38, "unit": "µL/min/mg"}, {"measurement": "Papp at 18 hours, 50 µM", "setting": "[2]; pH 6.5", "result": 5.8, "unit": "×10⁻⁶ cm/s"}]}
{"smiles": "CC[C@H](C)[C@H](NC(=O)[C@H](CC(C)C)NC(=O)[C@@H]1CC(=O)N[C@@H](C)C(=O)N[C@@H](CC(C)C)C(=O)N[C@@H](Cc2ccccc2)C(=O)N[C@@H](CC(C)C)C(=O)N[C@@H]([C@@H](C)O)C(=O)N2CCC[C@H]2C(=O)N(C)CC(=O)N[C@@H](Cc2ccccc2)C(=O)N[C@@H](C(C)C)C(=O)N(C)[C@@H](C)C(=O)N1)C(=O)N1CCCCC1", "note": "[DP-41] (ALFLTP[Sar]FV[NMeA]DLI-Piperidide; lactam N-11)", "values": [{"measurement": "microsomal CLint at 1 uM", "setting": "[1]; human, pH 7.4, CL NADPH(+)", "result": 72, "unit": "µL/min/mg"}, {"measurement": "Papp at 18 hours, 50 µM", "setting": "[2]; pH 6.5", "result": 11, "unit": "×10⁻⁶ cm/s"}]}
{"smiles": "CC[C@H](C)[C@H](NC(=O)[C@@H]1CC(=O)N[C@@H](C)C(=O)N[C@@H]([C@@H](C)O)C(=O)N[C@@H](CC(C)C)C(=O)N2CCC[C@H]2C(=O)N[C@@H](Cc2ccccc2)C(=O)N(C)[C@@H](Cc2ccccc2)C(=O)N(C)[C@@H](C(C)C)C(=O)N[C@@H](C)C(=O)N(C)[C@@H](CC(C)C)C(=O)N1)C(=O)N1CCCCC1", "note": "[DP-44] (ATLPF[NMeF][NMeV]A[NMeL]DI-Piperidide; lactam N-10)", "values": [{"measurement": "microsomal CLint at 1 uM", "setting": "[1]; human, pH 7.4, CL NADPH(+)", "result": 59, "unit": "µL/min/mg"}, {"measurement": "Papp at 18 hours, 50 µM", "setting": "[2]; pH 6.5", "result": 20, "unit": "×10⁻⁶ cm/s"}]}
